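96-well plates; 48 h exposure; 5 concentrations. Endpoints by linear interpolation between flanking doses. Not reached: highest tested concentration assigned. GI50 is the concentration that inhibits growth by half.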 The source made the active and inactive calls. No stated cut-off is given here; in the data, active = GI50 up to about 1.1 µM and inactive = higher.
Tests used:
Experiment in all cases: DTP human tumour cell line panel, 48 h
XF498 = tested on: XF498
DMS-114 = tested on: DMS-114
M19-MEL = tested on: M19-MEL
SNB-78 = tested on: SNB-78
DLD-1 = tested on: DLD-1
LXFL 529 = tested on: LXFL 529
KM-20L2 = tested on: KM-20L2
HOP-18 = tested on: HOP-18
RXF 631 = tested on: RXF 631

Compound	GI50 (XF498)	GI50 (DMS-114)	GI50 (M19-MEL)	GI50 (SNB-78)	GI50 (DLD-1)	GI50 (LXFL 529)	GI50 (KM-20L2)	GI50 (HOP-18)	GI50 (RXF 631)
COc1cc2c(cc1O)C=NCC2	> 100 µM (inactive)	> 100 µM (inactive)	> 100 µM (inactive)	> 100 µM (inactive)	> 100 µM (inactive)	> 100 µM (inactive)	> 100 µM (inactive)		
O=C1NC(=O)C2C3C=CC(C12)C1C2C(=O)NC(=O)C2C31 (stereo not given)	143 µM (inactive)	125 µM (inactive)	177 µM (inactive)	204 µM (inactive)	228 µM (inactive)		208 µM (inactive)	222 µM (inactive)	
CCCC1C[C@H]2CCCCN2[C@H]2CCCN12 (stereo not given in full)	> 100 µM (inactive)	> 51.5 µM (inactive)		> 100 µM (inactive)	> 50.4 µM (inactive)	> 69.3 µM (inactive)	> 88.3 µM (inactive)	> 100 µM (inactive)	> 100 µM (inactive)
CC(C)C(=O)/C=C/c1ccc(Cl)cc1	7.78 µM (inactive)	16.9 µM (inactive)	14.4 µM (inactive)		11.9 µM (inactive)	14.9 µM (inactive)	26.2 µM (inactive)	4.9 µM (inactive)	
CC1=C(C(=O)Nc2cc(F)c(F)cc2F)C(c2cccc([N+](=O)[O-])c2)C(C(=O)Nc2ccccc2C(F)(F)F)=C(C)N1 (stereo not given)		17 µM (inactive)	27.2 µM (inactive)	19.5 µM (inactive)	25.3 µM (inactive)	16.8 µM (inactive)	23.8 µM (inactive)		19.2 µM (inactive)
C=C1C(C)C2C(Cc3ccccc3)NC(=O)C23C(OC(C)=O)C=CC(C)(O)C(=O)C(C)C/C=C/C3C1O (stereo not given)	2.01 µM (inactive)	8.71 µM (inactive)	16.1 µM (inactive)	0.116 µM (active)	0.78 µM (active)	3.14 µM (inactive)	0.158 µM (active)		0.117 µM (active)
CCCCCCCCCCCCCCCc1nnc(SCC(=O)O)[nH]1	65.8 µM (inactive)			> 100 µM (inactive)	23.4 µM (inactive)	22.8 µM (inactive)		> 100 µM (inactive)	19.6 µM (inactive)
Nc1cccc(S(=O)(=O)NCC(=O)O)c1	> 100 µM (inactive)	> 100 µM (inactive)	> 100 µM (inactive)	> 100 µM (inactive)	> 100 µM (inactive)	> 100 µM (inactive)	> 100 µM (inactive)	> 100 µM (inactive)	> 100 µM (inactive)
COc1cccc(NC(=O)CSc2nnc(-c3ccc(NC(C)=O)cc3)o2)c1		> 100 µM (inactive)	> 100 µM (inactive)	> 100 µM (inactive)	> 100 µM (inactive)	> 100 µM (inactive)	94.6 µM (inactive)	14 µM (inactive)	
COc1cc(C2c3cc4c(cc3[C@@H](N(C)c3ccc(N(C)C)cc3)C3COC(=O)C23)OCO4)cc(OC)c1O (stereo not given in full)	0.286 µM (active)	0.264 µM (active)	0.721 µM (active)		0.443 µM (active)	0.312 µM (active)	0.21 µM (active)	13.4 µM (inactive)	0.357 µM (active)
CC(=O)C1Cn2c(=O)c3cc4ccccc4cc3c(=O)n2C=C1C (stereo not given)	> 100 µM (inactive)	> 100 µM (inactive)	> 100 µM (inactive)	> 100 µM (inactive)	> 100 µM (inactive)	83.4 µM (inactive)	> 100 µM (inactive)		> 100 µM (inactive)
CCOP1(=O)C=CC(Cl)=C(C)C1 (stereo not given)	19 µM (inactive)	15.6 µM (inactive)	21.6 µM (inactive)	18.9 µM (inactive)	6.97 µM (inactive)	12.4 µM (inactive)	16.9 µM (inactive)	17.4 µM (inactive)	
CCOC(=O)NC1=C(N2CC2)C(=O)C(NC(=O)OCC)=C(N2CC2)C1=O [DIAZIQUONE]	3.67 µM (inactive)	2.01 µM (inactive)	5.38 µM (inactive)	7.36 µM (inactive)	7.38 µM (inactive)	4.92 µM (inactive)	6.93 µM (inactive)	6.35 µM (inactive)	
Cc1ccc(NC(=O)CC/C(CC(=O)c2ccc(Cl)cc2)=N\NC(=O)C(=O)NN)cc1C	> 100 µM (inactive)	> 100 µM (inactive)	> 100 µM (inactive)	> 100 µM (inactive)	> 100 µM (inactive)	> 100 µM (inactive)	> 100 µM (inactive)	> 100 µM (inactive)	
CC(=O)c1ccc2c(ccc(=O)n2C)c1	> 100 µM (inactive)	> 100 µM (inactive)	> 100 µM (inactive)		> 100 µM (inactive)	> 100 µM (inactive)	> 100 µM (inactive)	> 100 µM (inactive)	
Cc1cc2c3c(coc3c1-c1c(C)cc3c4c(coc14)C(=O)C(O)=C3C(C)C)C(=O)C(O)=C2C(C)C	4.79 µM (inactive)	2.63 µM (inactive)	7.03 µM (inactive)	9.44 µM (inactive)	4.6 µM (inactive)	3.77 µM (inactive)	6.04 µM (inactive)		8.71 µM (inactive)
Cc1cc(C=O)c2c(=O)c3c(O)ccc(/C=C/C(C)C)c3oc2c1		41.4 µM (inactive)	36.7 µM (inactive)		70.1 µM (inactive)	43.4 µM (inactive)	> 100 µM (inactive)		
CCN(c1ccccc1)[C@H]1C(=O)N(c2ccc([N+](=O)[O-])cc2)[C@H]1c1ccc(OC)cc1		> 100 µM (inactive)	61.7 µM (inactive)	> 100 µM (inactive)	> 100 µM (inactive)	> 100 µM (inactive)			35.8 µM (inactive)
CC1(O)CCC2(C)C(=O)C1(C)CCC21OCCO1 (stereo not given)	> 100 µM (inactive)	> 100 µM (inactive)	> 100 µM (inactive)		> 100 µM (inactive)	> 100 µM (inactive)		> 100 µM (inactive)	
CCOc1ccc(NCc2cc(OC)c(OC)c(OC)c2)cc1		0.291 µM (active)			0.807 µM (active)		0.333 µM (active)		
Cc1ccc(S(=O)(=O)Nc2cccc3c(=O)nc[nH]c23)cc1	> 100 µM (inactive)	31.2 µM (inactive)	> 100 µM (inactive)	> 100 µM (inactive)		> 86.7 µM (inactive)	> 100 µM (inactive)	53 µM (inactive)	
NC(=O)c1c[se]c(C2OC(COP(=O)(O)CP(=O)(O)OCC3OC(n4cnc5c(N)ncnc54)C(O)C3O)C(O)C2O)n1 (stereo not given)	> 100 µM (inactive)	97.5 µM (inactive)	> 100 µM (inactive)	> 100 µM (inactive)	55.5 µM (inactive)	51.4 µM (inactive)	74.5 µM (inactive)	> 100 µM (inactive)	
COC(=O)Cc1c([C@@]2(C)CCCC(C)(C)C2)ccc2c1C(=O)OC2		3.96 µM (inactive)	15.1 µM (inactive)	14.9 µM (inactive)	3.62 µM (inactive)	7.29 µM (inactive)		18.3 µM (inactive)	12.9 µM (inactive)
CN(C)/C(N)=N\C#N		93.8 µM (inactive)	83.6 µM (inactive)	> 100 µM (inactive)	48.9 µM (inactive)	> 100 µM (inactive)	> 100 µM (inactive)	> 100 µM (inactive)	> 100 µM (inactive)
CC(C)CC(NC(=O)c1cccc(O)c1O)C(=O)NCc1cc(CNC(=O)C(CC(C)C)NC(=O)c2cccc(O)c2O)cc(CNC(=O)C(CC(C)C)NC(=O)c2cccc(O)c2O)c1 (stereo not given)		5.13 µM (inactive)		29.1 µM (inactive)	20.9 µM (inactive)	2.82 µM (inactive)	7.11 µM (inactive)	24 µM (inactive)	
O=[N+]([O-])c1ccc(C[P+]2(c3ccccc3)CCCCC2)cc1.[O-][Cl+3]([O-])([O-])[O-]	< 0.01 µM (active)	> 100 µM (inactive)			> 100 µM (inactive)	97.7 µM (inactive)	> 100 µM (inactive)	> 100 µM (inactive)	
N#C/C(=C(/S)Nc1ccccc1)c1nc2ccccc2[nH]1	> 10 µM (inactive)	> 10 µM (inactive)	> 10 µM (inactive)		> 10 µM (inactive)	> 10 µM (inactive)	> 10 µM (inactive)	> 10 µM (inactive)	

Source: ChEMBL document CHEMBL1201862, “PubChem BioAssay data set” (2004)
